These results are taken from ChEMBL document CHEMBL5052824, “Novel sesquiterpenoid analogs” (2020).

The test system of test [1] is MDA-MB-231. The test can be described thus: Binding affinity to cysteine residue of protein in human MDA-MB-231 lysates at 30 uM incubated for 1 hr and measured in presence of cysteine-reactive reagent JW-RF-001 by SDS-PAGE analysis. The class given is subcellular.
For test [2], the system named is MDA-MB-231. The test can be described thus: Binding affinity to cysteine residues of protein in human MDA-MB-231 lysates at 30 uM incubated for 1 hr and measured by SDS-PAGE analysis. The class given is subcellular.
Test [3] can be described thus: Upregulation of POLE expression in POLE3 knocked down human HeLa cells and measured as fold change after 6 hrs. The class given is functional.
The test system of test [4] is HeLa. Description: Downregulation of PEA15 expression in POLE3 knocked down human HeLa cells and measured after 6 hrs. The class given is functional, cell-based.
Test [5] relates to HeLa. Description: Downregulation of DNA ligase 3 expression in POLE3 knocked down human HeLa cells and measured after 6 hrs. The test is classed as functional, cell-based.
Test [6] relates to HeLa. The test can be described thus: Downregulation of GIT2 expression in POLE3 knocked down human HeLa cells and measured after 6 hrs. The test is classed as functional, cell-based.
Test [7] addresses T1, DNA polymerase epsilon subunit 3 (Homo sapiens) (UniProt Q9NRF9).
T1 sequence (whole entry): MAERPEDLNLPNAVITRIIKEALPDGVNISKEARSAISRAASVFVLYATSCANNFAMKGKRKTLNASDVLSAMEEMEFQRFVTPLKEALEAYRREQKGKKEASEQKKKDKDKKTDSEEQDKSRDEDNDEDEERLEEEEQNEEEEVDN
Description: Binding affinity towards wild-type POLE3 overexpressed in human 293T cells measured after 1 hr by SDS-PAGE analysis. The conditions noted are these: HEK293T. The test is classed as cell-based.

The test system of test [8] is HeLa. Description: Induction of DNA damage in human HeLa cells at 30 uM assessed as increase in gamma-H2AX level and measured by DAPI staining method relative to control. The class given is functional, cell-based.
Test [9] concerns HeLa. Description: Induction of DNA damage in POLE3 knocked down human HeLa cells at 30 uM assessed as increase in gamma-H2AX level in presence of 30 uM etoposide and measured by DAPI staining method relative to control. The test is classed as functional, cell-based.
Test [10] has as its system HeLa. Description: Downregulation of GEMIN2 expression in POLE3 knocked down human HeLa cells and measured after 6 hrs. The test is classed as functional, cell-based.
The subject of test [11] is HeLa. The test can be described thus: Induction of DNA damage in human HeLa cells at 30 uM assessed as increase in gamma-H2AX level in presence of 30 uM etoposide and measured by DAPI staining method relative to control. The class given is functional, cell-based.

The structures appear in SMILES notation. The source made the active and inactive calls. No cut-off for these calls is given here.

Consider `C=C1C[C@@]2(C[C@H](C)[C@H]3CC=C(CN=[N+]=[N-])C(=O)[C@@H]3O2)OC1=O`, for which the outcome with MDA-MB-231 [1] was inactive. Also, in the test on MDA-MB-231 [2], the outcome was Active.
With `C=C1C[C@@]2(C[C@H](C)[C@H]3CC=C(C)C(=O)[C@@H]3O2)OC1=O`, the “fold change (FC)” value in test [3] worked out at 4. In addition, the result in the test on HeLa [4], in the test with HeLa [5], in the test with HeLa [6], in the test with HeLa [9], with HeLa [10] and in the test with HeLa [11] was Active. In [7], this compound had a Kinact of 0.27 min⁻¹. For the same compound, the result with HeLa [8] was inactive.
Take `COc1cc([C@@H]2c3cc4c(cc3[C@@H](O[C@@H]3O[C@@H]5CO[C@@H](C)O[C@H]5[C@H](O)[C@H]3O)[C@H]3COC(=O)[C@H]23)OCO4)cc(OC)c1O`: the result in the test with HeLa [8] was Active.
